Reference: the OPERA property sets (Mansouri et al. 2018)

settings: not given

Row | SMILES | log10 vapour pressure (mmHg) | melting point [°C] | boiling point [°C] | log10 Koc (L/kg) | ready biodegradability | log10 Henry constant (atm·m³/mol) | log10 Koa
1 | COc1ccsc1CN(C(=O)CCl)c1c(C)cccc1C | -6.68 | 73 | – | – | – | – | –
2 | O=C(O)CCCC(=O)O | -5.54 | – | 303 | – | – | – | –
3 | C#C | 4.56 | -80.7 | -84.7 | – | – | – | –
4 | O=c1ccc(=O)[nH][nH]1 | – | 306 | – | 0.45 | readily biodegradable | – | –
5 | CCCCCCCCCO | – | – | – | – | readily biodegradable | – | –
6 | CC1=NN(c2cc(Cl)c(S(=O)(=O)O)cc2Cl)C(=O)C1 | – | – | – | – | not readily biodegradable | – | –
7 | Cc1cc(C)cc(O)c1 | -1.39 | 63.6 | 222 | 2.83 | – | -6.21 | –
8 | CCCCCCCCCCCCCC(=O)O | -5.85 | 53.9 | 326 | – | – | – | –
9 | CCCCC(CC)COP(=O)(Oc1ccccc1)Oc1ccccc1 (stereo not given) | -4.3 | -54 | 375 | – | not readily biodegradable | -4.27 | –
10 | Cc1ccc2oc(=O)ccc2c1 | – | 76.5 | 304 | – | – | – | –
11 | O=C(OCCO)c1ccccc1O | – | 37 | – | – | – | – | –
12 | CCCCCCCCCCCCN1CC(C(=O)O)CC1=O (stereo not given) | – | 39 | – | – | – | – | –
13 | C=CC(C)Cl (stereo not given) | 2.18 | – | 64.5 | – | – | – | –
14 | COc1c(Cl)ccc(Cl)c1Cl | – | 45 | 227 | – | – | -3.54 | –
15 | O=CC=O | 2.41 | 15 | 50.4 | – | readily biodegradable | -8.48 | –
16 | CCCCSCCCC | 0.0792 | -79.7 | 185 | – | – | – | –
17 | Brc1ccc(Oc2ccccc2Br)cc1 | – | – | – | – | – | – | 8.47
18 | C[Si](C)(C)[Si](C)(C)C | – | 13.5 | 114 | – | – | – | –
19 | CCC(CC)CO | 0.185 | – | 147 | – | – | – | –
20 | COc1cccc(-c2cccc(OC)c2)c1 | – | 36 | 328 | – | – | – | –
21 | CCCC(=O)OCc1ccccc1 | – | – | 239 | – | – | – | –
22 | CCCCCCCCCCCCCCCCCC(=O)Cl | – | 23 | – | – | – | – | –
23 | FC(F)(F)c1nc2ccccc2[nH]1 | – | 210 | – | – | – | – | –
24 | O=S(=O)(Cl)c1ccccc1 | -1.24 | 14.5 | 252 | – | – | – | –
25 | O=c1ccn([C@@H]2O[C@H](CO)[C@@H](O)[C@@H]2O)c(=O)[nH]1 | – | 165 | – | – | – | – | –
26 | CCCCC(CC)COP(=O)(OCC(CC)CCCC)OCC(CC)CCCC (stereo not given) | -7.08 | -74 | – | – | not readily biodegradable | – | –

Row | SMILES | log10 vapour pressure (mmHg) | melting point [°C] | boiling point [°C] | log10 Koc (L/kg) | ready biodegradability | log10 Henry constant (atm·m³/mol) | log10 Koa
27 | C[C@@H]1C[C@H]2[C@@H]3CCC4=CC(=O)C=C[C@]4(C)[C@@]3(F)[C@@H](O)C[C@]2(C)[C@H]1C(=O)CO | – | 217 | – | – | – | – | –
28 | O=C(Cl)c1c(F)c(F)c(F)c(F)c1F | – | – | 158 | – | – | – | –
29 | CCCC(CC(OCC)OCC)OCC (stereo not given) | – | -100 | – | – | – | – | –
30 | Cc1ccc(C)c(OCCCC(C)(C)C(=O)O)c1 | – | 62 | – | – | – | – | –
31 | CCCCCCCC(C)=O | -0.205 | -7.5 | 195 | – | – | -3.44 | –
32 | CCCCCCCCC(Br)CBr (stereo not given) | -2.43 | 28 | – | – | – | – | –
33 | FCCC(F)(F)F | – | – | 29.4 | – | – | – | –
34 | C=CC(CC)c1ccccc1 (stereo not given) | – | – | 192 | – | – | – | –
35 | N#Cc1ccc(OC(F)(F)F)cc1 | – | – | 192 | – | – | – | –
36 | N#Cc1cnc2ccccc2c1 | – | 109 | – | – | – | – | –
37 | CC(=O)Nc1ccc(Br)cc1 | – | – | – | 1.95 | – | – | –
38 | O=C[C@H](O)CO | – | 145 | – | – | – | – | –
39 | CCSc1ccc2c(c1)N(CCCN1CCN(C)CC1)c1ccccc1S2 | – | 63 | – | – | – | – | –
40 | Cc1c(N)cccc1Cl | – | 1 | 245 | – | – | – | –
41 | CCNc1ccc([N+](=O)[O-])cc1 | – | 97 | – | – | – | – | –
42 | CN(C)CCCN1c2ccccc2S(=O)c2ccc(Cl)cc21 (stereo not given) | – | 115 | – | – | – | – | –
43 | CCC(C(=O)O)C1(O)CCCCC1 (stereo not given) | – | 81.5 | – | – | – | – | –
44 | CCCc1ccccn1 | – | 2 | 167 | – | – | – | –
45 | Clc1cc(Cl)c2c(Cl)cc(Cl)cc2c1 | – | – | – | – | – | – | 8.28
46 | O=C(O)[C@@H](O)[C@H](O)[C@H](O)[C@@H](O)C(=O)O | – | 126 | – | – | – | – | –
47 | Oc1ccc(O)c(-c2ccccc2)c1 | – | 102 | – | – | – | – | –
48 | Clc1cc2c(Cl)c(Cl)c(Cl)c(Cl)c2cc1Cl | -6.46 | – | – | – | – | – | 9.58
49 | C/C=C/C=C/CCCCCCCO | -3.29 | 32 | – | – | – | – | –
50 | CCCCCCCCCCC1CCCC1 | – | -22 | 279 | – | – | – | –
51 | N[C@H](Cc1ccccc1)c1ccccc1 | – | – | 311 | – | – | – | –
52 | OC1CCCCCC1 | – | 2 | 185 | – | – | – | –

Row | SMILES | log10 vapour pressure (mmHg) | melting point [°C] | boiling point [°C] | log10 Koc (L/kg) | ready biodegradability | log10 Henry constant (atm·m³/mol) | log10 Koa
53 | N#CC(Cl)Cl | – | – | 112 | – | – | – | –
54 | CCCCn1cccc1 | – | – | 170 | – | – | – | –
55 | O=C(O)c1c(Cl)c(Cl)c(Cl)c(Cl)c1Cl | – | 209 | – | – | – | – | –
56 | O=S(=O)(O)C(F)(F)C(F)(F)C(F)(F)C(F)(F)F | – | – | 211 | – | – | – | –
57 | CNCC(O)c1ccc(O)cc1 (stereo not given) | – | 184 | – | – | – | – | –
58 | c1ccc2cc3c4ccccc4c4ccccc4c3cc2c1 | -10 | 206 | 524 | – | – | – | –
59 | NC(=O)c1ccc(C(F)(F)F)cc1 | – | 185 | – | – | – | – | –
60 | CCOC(CN(CC)CC)OCC | – | – | 194 | – | – | – | –
61 | CC1CC(OC(=O)C(O)c2ccccc2)CC(C)(C)N1C (stereo not given) | – | 113 | – | – | – | – | –
62 | c1ccc2nc3ccccc3nc2c1 | – | 176 | – | 3.37 | – | – | –
63 | CCO[Si](CCCN)(OCC)OCC | – | – | 217 | – | not readily biodegradable | – | –
64 | CC(=O)C1(O)CCCCC1 | – | – | 126 | – | – | – | –
65 | Nc1ncnc2c1ncn2[C@@H]1O[C@H](CO)[C@@H](OP(=O)(O)O)[C@H]1O | – | 197 | – | – | – | – | –
66 | CN1C(=O)C(C)(C2=CCCCC2)C(=O)N=C1O (stereo not given) | – | 146 | – | – | – | – | –
67 | C=C(CC)CC | 2.24 | -132 | 64.7 | – | – | – | –
68 | Cc1cc(CC(=O)O)n(C)c1C(=O)c1ccc(Cl)cc1 | – | 178 | – | – | – | – | –
69 | C=C1C/C(=C/C)C(=O)O[C@@H]2CCN3CC=C(COC(=O)[C@]1(C)O)[C@H]23 | – | 218 | – | – | – | – | –
70 | O=C1CC=CCC1 | – | – | 170 | – | – | – | –
71 | CCSCC(C)C | – | – | 134 | – | – | – | –
72 | O=c1cc(CO)occ1O | – | 154 | – | – | – | – | –
73 | CC1(C)C(=O)N(Cl)C(=O)N1Cl | – | 132 | – | – | – | – | –
74 | CCCCCCCCc1ccccc1 | -1.95 | -36 | 264 | – | – | – | –
75 | CCCO | 1.32 | – | 97.2 | – | readily biodegradable | -5.13 | –
76 | O=c1oc(=O)c2ccccc2c2ccccc12 | – | 217 | – | – | – | – | –
77 | ICCCI | – | -20 | – | – | – | – | –
78 | COc1ccccc1C#N | – | 24.5 | 256 | – | – | – | –

Row | SMILES | log10 vapour pressure (mmHg) | melting point [°C] | boiling point [°C] | log10 Koc (L/kg) | ready biodegradability | log10 Henry constant (atm·m³/mol) | log10 Koa
79 | CN1CCc2c(c3ccccc3n2Cc2ccccc2)C1 | – | 95 | – | – | – | – | –
80 | CC(O)C(O)CO (stereo not given) | -2.47 | – | – | – | – | – | –
81 | Cc1ccncc1C | 0.092 | -11 | 179 | – | – | -5.43 | –
82 | Clc1cccc(-c2ccccc2Cl)c1 | – | – | – | – | – | -3.6 | –
83 | Cc1cc(C)c(C(=O)O)cc1C | – | 152 | – | – | – | – | –
84 | Brc1ccc2c(c1)Oc1ccc(Br)cc1O2 | -5.95 | 193 | – | – | – | – | –
85 | Cc1ccc(C(=O)COc2c(C(=O)c3ccc(Cl)c(C)c3Cl)c(C)nn2C)cc1 | -7.01 | 133 | – | – | – | – | –
86 | C[Si](C)(Cl)O[Si](C)(C)O[Si](C)(C)Cl | – | -53 | 184 | – | – | – | –
87 | C[C@]12C=CC(=O)C=C1CC[C@@H]1[C@@H]2[C@@H](O)C[C@@]2(C)[C@H]1CC[C@]2(O)C(=O)COC(=O)CCCc1ccc(N(CCCl)CCCl)cc1 | – | 164 | – | – | – | – | –
88 | Cc1[nH]c(=O)n(C(C)(C)C)c(=O)c1Cl | -6.33 | 176 | – | 1.66 | not readily biodegradable | – | –
89 | COC=Cc1ccccc1 | – | – | 212 | – | – | – | –
90 | CN(CCO)CCO | -3.7 | -21 | 247 | – | not readily biodegradable | – | –
91 | CCCCC(C)Br (stereo not given) | 0.86 | – | 144 | – | – | – | –
92 | CC(=O)c1c(C)c([N+](=O)[O-])c(C(C)(C)C)c([N+](=O)[O-])c1C | – | 136 | – | – | – | – | –
93 | Nc1ccc2ncccc2c1 | -4.79 | 114 | – | – | – | – | –
94 | O=C(O)c1cccc(O)c1O | – | 204 | – | – | – | – | –
95 | C=CCN=C=S | 0.568 | -80 | 152 | – | – | – | –
96 | CCSCCO | – | -100 | 184 | – | – | – | –
97 | CC[C@H]1O[C@]2(CC[C@@H]1C)C[C@@H]1C[C@@H](CC=C(C)C[C@@H](C)C=CC=C3CO[C@@H]4[C@H](O)C(C)=C[C@@H](C(=O)O1)[C@]34O)O2 | – | 214 | – | – | – | – | –
98 | CCCCN(C)C | – | – | 95 | – | – | – | –
99 | Cc1cc(O)c(C(C)C)cc1Cl | – | 63 | 258 | – | – | – | –
100 | C1CSCCO1 | – | – | 147 | – | – | – | –
101 | CC1(C)CC[C@]2(C(=O)O)[C@H](O)C[C@]3(C)C(=CC[C@@H]4[C@@]5(C)CC[C@H](O)[C@@](C)(C=O)[C@@H]5CC[C@]43C)[C@@H]2C1 | – | 294 | – | – | – | – | –
102 | C#CCCCCCCCCCCCCCCCC | – | 22.5 | 313 | – | – | – | –
103 | CCCC(C)C(C)(C)C (stereo not given) | 1.06 | – | 134 | – | – | – | –

same assay, conditions: fish

Row | SMILES | log10 BCF | log10 biotransformation half-life (days)
104 | CC1=NN(c2cc(Cl)c(S(=O)(=O)O)cc2Cl)C(=O)C1 | 1.51 | –
105 | CCCCC(CC)COP(=O)(Oc1ccccc1)Oc1ccccc1 (stereo not given) | 2.49 | -0.15
106 | COc1c(Cl)ccc(Cl)c1Cl | 2.52 | –
107 | CCCCC(CC)COP(=O)(OCC(CC)CCCC)OCC(CC)CCCC (stereo not given) | 1.7 | -0.29
108 | CCCCCCCCc1ccccc1 | – | 0.22
